Data: patent publication EP1306084A1, “Compositions for the control of parasitic infestations in fish” (Alpharma AS, priority 1998, dated 1999)
Where two headings read alike, the source gives them in different places.

Key:
[1] = Chemical analysis of muscle with skin after injection (Example 7); type: in vivo, salmon (Salmo salar); details: fish, 50 mg/kg; for concentration at 8280 h: T11, 345 days after injection, read-out: muscle/skin concentration of hexaflumuron
Experimental: Tissue samples (muscle with skin) for chemical analysis were collected from three fish at each sample point in time throughout the entire trial period in order to monitor the concentrations of hexaflumuron. At sea water transfer, the muscle/skin concentrations were between 2 and 3 µg hexaflumuron per g of tissue. […] At T8, i.e. 238 days after vaccination, the concentration of hexaflumuron varied between 0.49 and 0.53 µg per g of tissue. At T11, i.e. 345 days after injection (322 days after sea water transfer) the muscle/skin concentration of hexaflumuron in the two groups was 0.13 and 0.11 µg/g tissue, respectively. At the same point in time, different stages of sea lice had become established on these fish.

[2] = Specific growth rate after sea transfer (Example 5); type: in vivo, sea trout (Salmo trutta); details: treated groups (oral, bath), after about 13 weeks; control group 0.37%
Experimental: About 300 sea trout (Salmo trutta) of an average weight of 160 grams were divided into three groups of 100 fish each. One group was given oral treatment for one week before they were transferred to sea at a daily dosage of 4 mg hexaflumuron per kg fish for 5 days. The second group was treated with a bath treatment using a dosage of 5 ppm hexaflumuron for 30 minutes with a formulation containing 10% hexaflumuron, while the last group remained untreated. The treatments were carried out in fresh water during the last week before the fish were transferred to sea water. In the sea water, the fish were distributed into 3 mini-cages with 100 fish in each. The fish were then exposed to natural sea lice infection. Lice from 6-10 fish from each cage were counted every third week to assess whether there was any difference in the number of lice between the cages. At the end of the trial, i.e. about 13 weeks after the fish had been transferred to sea, the fish in each cage were weighed to check possible differences in SGR. The water temperature varied within the range of 12 - 22°C during the trial.
After 11 weeks there was no difference between the groups, but the number of lice was very low in all groups, which makes it difficult to determine the length of the protection period. […] The SGR was determined after about 13 weeks. […]

sea lice = assay: Field trial: medicated feed before sea transfer, recapture of tagged fish, sea lice infection (Example 3); type: in vivo, wild sea trout (Salmo trutta); details: about 3 mg per fish per day for six days in feed before sea transfer; 13 treated fish caught June 20 to August 7
Experimental: About 2,000 wild sea trout (Salmo trutta) were divided into two groups and marked with Carlin tags in two different colours (yellow or red) so that individuals of the groups could easily be distinguished from each other when observed in the water. The group with yellow Carlin tags were given feed containing hexaflumuron. The dose was about 3 mg of hexaflumuron per fish per day for six days. The feeding was done the last week before they were transferred to the sea in the beginning of May. The control group had red Carlin tags and was fed ordinary fish feed until sea transfer. Both groups of fish were transferred to the sea 200 metres from the river mouth of the Bondhus River in Hordaland in Norway. From sea transfer (May 8) until August 7, neighbouring rivers and estuaries round these rivers were examined every week, using fishing by application of high voltage and net fishing.
Tagged fish was not caught until June 20. From June 20 to August 7, 22 control fish and 13 treated fish were caught. The untreated fish were caught in the lower parts of the rivers and were heavily infected with sea lice. The 13 treated fish were exclusively caught in the estuary around the rivers (in sea water), none were caught in freshwater.

[3] = Specific growth rate after sea transfer (Example 4); type: in vivo, salmon (Salmo salar); details: treated groups, after about 12 weeks; control group 1.79%
Experimental: About 2,500 salmon (Salmo salar) of average weight 42 grams were treated orally with a daily dosage of 4 mg hexaflumuron per kilo fish for 5 days. The treatment was carried out in freshwater one week before the fish were transferred to sea water. In the sea water, the fish was distributed into 3 different minicages with 800-850 fish in each. At the same time 1,000 untreated fish (from a different fish farm) weighing on average 50 grams were transferred to sea in a neighbouring cage. After being transferred to sea water, the fish were exposed to natural sea lice infection. The number of lice on 10 fish from each cage were counted every third week to check if there was any difference in the number of lice in the cages. When ending the trial, about 12 weeks after the fish had been transferred to sea, the fish in each cage were weighed to check possible differences in growth (SGR, specific growth rate). The water temperature varied between 10-16°C during the trial. […] From 9 weeks on, there was no difference between the groups. The dosage rate that was used in this trial, i.e. 4 mg of hexaflumuron per kg fish per day, is very low. By increasing the dosage the protection time would probably be extended. […] The SRG was measured after about 12 weeks and it was estimated at 1.79% in the control group, and 1.95 - 2.00% in the treated groups.

[4] = Chemical analysis of muscle/skin after injection of hexaflumuron formulations (Example 8); type: in vivo, salmon smolt; details: 50 mg/kg; for concentration at 5232 h: fish, muscle/skin, T8 (218 days after injection)
Experimental: Tissue samples (muscle/skin) for chemical analysis were collected from five fish injected with the various hexaflumuron formulations at each sample point in time throughout the trial. […] At sea water transfer, the muscle/skin concentrations in the two other hexaflumuron groups (Apoject 1-Fural, animal oil) varied between 1 and 2.5 µg hexaflumuron/g tissue.

Q: What does the source list for `O=C(NC(=O)c1c(F)cccc1F)Nc1cc(Cl)c(OC(F)(F)C(F)F)c(Cl)c1` [hexaflumuron]?
A: concentration at 5712 h ([1]; T8, 238 days after vaccination, read-out: concentration of hexaflumuron in muscle/skin): 490 to 530 ng/g; concentration at 8280 h ([1]; first-named group): 130 ng/g; concentration at 8280 h ([1]; second-named group): 110 ng/g; concentration at 552 h ([1]; at sea water transfer (23 days after injection of about 50 mg/kg), read-out: muscle/skin concentrations): 2000 to 3000 ng/g; SGR [2]: 0.84 - 0.98%; signs of sea lice infections in recaptured fish (sea lice): None of the treated fish showed signs of sea lice infections; SGR (specific growth rate) [3]: 1.95 - 2.00%; hexaflumuron concentrations in muscle/skin ([4]; T3, injected in an aqueous suspension (PBS)): below 0.02 µg per g; concentration at 5232 h ([4]; Apoject 1-Fural group): 260 ng/g; concentration at 5232 h ([4]; animal oil group): 270 ng/g
